In patent publication US20020045566A1, “Selective maxi-K potassium channel openers functional under conditions of high intracellular calcium concentration, methods and uses thereof” (priority 2000, published 2002):

Experiments:
[1] = genotoxicity in vitro and in vivo
Protocol: (§1) BMS-204352 has an encouraging preclinical safety profile. […] In single- and multiple-dose studies unaffected by drug at doses at least 3×higher than the highest cytotoxic target organ changes following IV administration for 1 month at doses up to 10 mg/kg/day (rats) and for 10 days at doses up to 20 mg/kg/day (dogs).

dopamine D3 receptor = target: T1, dopamine D3 receptor (Homo sapiens, UniProt P35462); assay: [3H]spiperone binding, PanLabs screen; details: initial test
T1 construct: PanLabs (contract screen)
Excerpt: (§2) BMS-204352 was also examined against a binding screen of over 50 receptors and enzyme systems (PanLabs ProfilingScreen® and DiscoveryScreen®). These systems include representatives of most G-protein coupled receptor families, ligand-gated ion channel families, as well as some voltage-gated ion channel binding sites such as the dihydropyridine receptor of L-type Ca^2+ channels. […] The significance of modest inhibition of σ1 ligand binding is unknown.

[2] = teratogenicity in rabbits; type: in vivo
Protocol: as §1

[3] = cardiovascular safety in anesthetized and conscious dogs; type: in vivo; details: doses at least 3× higher than 1 mg/kg IV
Protocol: as §1

cortical infarct volume [4] = assay: PUM,PIC,TCC model of acute stroke in Wistar normotensive rat; type: in vivo; details: administered 2 hours post-occlusion
Protocol: Permanent focal occlusion of the proximal middle cerebral artery (MCA) is performed using a modified version of the method originally developed by A. Tamura et al. (1981, J. Cerebr. Blood Flow Metab., 1:53-60). In the permanent unilateral MCA, permanent ipsilateral common carotid arteries (CCA) and transient contralateral CCA (PUM,PIC,TCC model), normotensive male Wistar rats are anesthetized with a combination of ketamine (40 mg/kg, i.m.) and xylazine (4.5 mg/kg, i.m.). After exposure of the left MCA via the subtemporal approach, a 2 mm section of the artery is electrocauterized and severed. Within 5 minutes, both CCA are exposed and occluded. […]
The contralateral temporary CCA occlusion reduces collateral flow sufficiently to allow for consistent, large cortical infarcts (S. Brint et al., 1988, Cerebr. Blood Flow Metab., 8:474-485). […] Animals are maintained throughout at 37° C. and monitored by means of a rectal probe. At 24 hours after the occlusion, animals are sacrificed and brains are removed and evaluated by triphenyltetrazolium chloride (TTC) staining to determine the area of infarct. Brain slices are photographed and infarct volumes determined with the assistance of computerized image analysis. Data are analyzed using ANOVAs and appropriate post-hoc tests (Dunnett's).

teratogenicity in rats = type: in vivo
Protocol: as §1

[5] = tested on: Ca^2+-activated chloride (Cl^−) channels (native oocyte channels); assay: ion channel specificity, Cl- currents (electrophysiology); type: cell-based, Xenopus; details: native oocyte Ca2+-activated Cl- channels
Protocol: (§3) To determine the specificity of the effects of the opener compounds, including BMS-204352, on maxi-K potassium channels, the compounds were tested against a representative sample of cloned and native ion channels expressed in Xenopus oocytes and clonal cell lines and were assayed using standard electrophysiological techniques readily known to and practiced by those having skill in the art. These included voltage-dependent potassium channels (Kv1.3, Kv1.5, Kv2.1), Ca^2+-activated chloride (Cl^−) channels (native oocyte channels), the cystic fibrosis transmembrane conductance regulator Cl^− channel (CFTR) and Ca^2+ currents (native GH3 cell Ca^2+ current).

[6] = brain penetrance and pharmacokinetics after IV administration in rat; type: in vivo
Excerpt: The ischemic penumbra is an area of low vascular perfusion. For a neuroprotective agent to reach ischemic neurons at therapeutic doses following the onset of a stroke, it should enter the brain at very high levels.

[7] = cardiovascular safety in rats; type: in vivo; details: doses at least 3× higher than the highest neuroprotective dose of 1 mg/kg IV
Protocol: as §1

σ1 = target: T2, σ1 (Homo sapiens, UniProt Q99720); assay: [3H](+)pentazocine binding, PanLabs screen
T2 construct: PanLabs (contract screen)
Excerpt: as §2

[8] = tested on: voltage-dependent potassium channels (Kv1.3, Kv1.5, Kv2.1); assay: ion channel specificity, Kv currents (electrophysiology); type: cell-based
Protocol: as §3

[9] = tested on: native GH3 cell Ca^2+ current; assay: ion channel specificity, native Ca2+ currents; type: cell-based; details: at 1 and 10 μM; similar reductions due to current rundown in control cells
Protocol: as §3

[10] = target: T3, human brain maxi-K channel α-subunit (hSlo) (Homo sapiens, UniProt Q12791); assay: whole-cell patch-clamp of hSlo-mediated outward currents in transfected HEK-293 cells; type: cell-based; details: for effect on hSlo-mediated current amplitudes: BMS-A at 1 μM
T3 construct: expressed in transfected cells; host or cells: HEK-293, stably transfected (pcDNA3, G418 selection)
Protocol: HEK-293 cells were transfected with 1-2 μg of pcDNA3 expression plasmid containing hSlo α-subunit cDNA (S. I. Dworetzky et al., 1994, Brain Res. Mol. Brain Res., 27:189-193) using lipofectamine (Gibco) according to the manufacturer's protocol. Cells stably transfected with hSlo were selected in medium supplemented with 0.5 mg/ml Geneticin (G418; Sigma). Transfected HEK-293 cells were grown in Minimum Essential Medium (MEM; Gibco) supplemented with 10% fetal calf serum and G418 at 37° C. in a humidified atmosphere of 5% CO2 and 95% […]. Cells were plated on fibronectin-coated glass cover slips in 35 mm culture dishes.
Outward K^+-mediated currents were examined using standard whole-cell patch-clamp techniques (P. O. Hamill et al., 1981, Pflugers Arch., 391:85-100). Records were filtered at 2 kHz prior to digitization at 10 or 20 kHz. The bathing solution contained the following components: NaCl, 145 mM; KCl, 3 mM; CaCl2, 2.5 mM; MgCl2 1 mM; HEPES, 10 mM; pH 7.4. The recording pipettes were pulled from thick-walled borosilicate glass (2-4 Mω in bathing solution), fire polished and filled with a solution containing: KCl 140 mM; MOPS, 20 mM; EGTA, 1.0 mM; pH 7.2, with CaCl2 adjusted to produce the required [Ca^2+]free (determined using the EQCAL program (Biosoft, Cambridge) incorporating the methods of A. Fabiato and F. Fabiato, 1995, J. Physiol., Paris. 75:463-505.
Stimulus generation and data acquisition were controlled by either an Axopatch 200 amplifier or an EPC 9 amplifier, and the Pulse program suite. Data were stored and analyzed off-line. The cell holding potential was −100 mV for experiments with 2.5 μM [Ca^2+]i, and −80 or […] for the remaining Ca^2+ concentrations (1 μM, 250 nM and 50 nM). A series of 10 mV depolarizing voltage steps (100 to 200 ms) appropriate to the [Ca^2+]i was applied to evoke a family of outward currents. Series resistance was ≦6Mω before 80% compensation. Currents were measured at steady state near the end of the voltage pulse.
Using the whole-cell voltage-clamp technique (R. Penner, 1995, “A Practical Guide to Patch Clamping”; In: Single Channel Recording, 2nd Edition, (Eds. B. Sakmann and E. Neher), Plenum Press, New York, pp. 3-30), hSlo-mediated outward currents were recorded with pipettes containing different concentrations of Ca^2+ (i.e., [Ca^2+]free=50 nM, 1 μM or 2.5 μM). Clamped cells were exposed to 5 μM of the fluoro-oxindole opener compound BMS-204352, or the chloro-oxindole opener compound BMS-225113, as described in Examples 1.
For outside-out and whole cell patch analyses, the solutions used are normal extracellular Na^+ solution containing (in mM): NaCl, 145; KCl, 3; CaCl2, 2.5; MgCl2, 1; HEPES, 10; ±glucose, 10; pH 7.4. Intracellular and extracellular medium for inside-out patches, or pipette solution for whole-cell patch, comprise (in mM): KCl, 140; MOPS, 20; EGTA, 1.0; pH 7.2 CaCl2 adjusted to produce the required [Ca^2+]free (determined using the EQCAL program; Biosoft, Cambridge). The cell holding potential for whole-cell recordings is −80 or −60 mV and depolarizing voltage steps appropriate to the internal Ca^2+ concentration are applied (at high intracellular Ca^2+ seals become unstable at higher clamp voltages, and are stable at lower voltages for shorter periods).
This example describes experiments that were conducted to determine the effects of intracellular Ca^2+ concentration ([Ca^2+]i) and the use of the BMS-A compound (see U.S. Pat. No. 5,869,509, Example 82), versus a known benzimidazolone compound called NS-1619 [D. Strbaek et al., 1996, Neuropharmacology, 35:903-914 and M. McKay et al., 1997, J. Neurophysiology, 71:1873], on whole-cell currents in HEK-293 cells genetically engineered to express a human brain hSlo α-subunit. For these experiments, the cell holding potential was either −80 or −100 mV and a series of 10 mV depolarizing voltage steps appropriate to the [Ca^2+]i, was applied. […]

cortical infarct volume [11] = assay: permanent MCA occlusion in SHR rat; type: in vivo, spontaneously hypertensive rats (SHR); details: administered 2 hours following occlusion onset, doses neuroprotective at earlier time points
cortical infarct volume [12] = assay: permanent MCA occlusion in SHR rat, MRI; type: in vivo, spontaneously hypertensive rats (SHR); details: 0.3 mg/kg bolus IV 2 hours after occlusion onset; at 5.5 and 24 hours after occlusion

T3 sequence (Q12791 1-1178 isoform Q12791-5): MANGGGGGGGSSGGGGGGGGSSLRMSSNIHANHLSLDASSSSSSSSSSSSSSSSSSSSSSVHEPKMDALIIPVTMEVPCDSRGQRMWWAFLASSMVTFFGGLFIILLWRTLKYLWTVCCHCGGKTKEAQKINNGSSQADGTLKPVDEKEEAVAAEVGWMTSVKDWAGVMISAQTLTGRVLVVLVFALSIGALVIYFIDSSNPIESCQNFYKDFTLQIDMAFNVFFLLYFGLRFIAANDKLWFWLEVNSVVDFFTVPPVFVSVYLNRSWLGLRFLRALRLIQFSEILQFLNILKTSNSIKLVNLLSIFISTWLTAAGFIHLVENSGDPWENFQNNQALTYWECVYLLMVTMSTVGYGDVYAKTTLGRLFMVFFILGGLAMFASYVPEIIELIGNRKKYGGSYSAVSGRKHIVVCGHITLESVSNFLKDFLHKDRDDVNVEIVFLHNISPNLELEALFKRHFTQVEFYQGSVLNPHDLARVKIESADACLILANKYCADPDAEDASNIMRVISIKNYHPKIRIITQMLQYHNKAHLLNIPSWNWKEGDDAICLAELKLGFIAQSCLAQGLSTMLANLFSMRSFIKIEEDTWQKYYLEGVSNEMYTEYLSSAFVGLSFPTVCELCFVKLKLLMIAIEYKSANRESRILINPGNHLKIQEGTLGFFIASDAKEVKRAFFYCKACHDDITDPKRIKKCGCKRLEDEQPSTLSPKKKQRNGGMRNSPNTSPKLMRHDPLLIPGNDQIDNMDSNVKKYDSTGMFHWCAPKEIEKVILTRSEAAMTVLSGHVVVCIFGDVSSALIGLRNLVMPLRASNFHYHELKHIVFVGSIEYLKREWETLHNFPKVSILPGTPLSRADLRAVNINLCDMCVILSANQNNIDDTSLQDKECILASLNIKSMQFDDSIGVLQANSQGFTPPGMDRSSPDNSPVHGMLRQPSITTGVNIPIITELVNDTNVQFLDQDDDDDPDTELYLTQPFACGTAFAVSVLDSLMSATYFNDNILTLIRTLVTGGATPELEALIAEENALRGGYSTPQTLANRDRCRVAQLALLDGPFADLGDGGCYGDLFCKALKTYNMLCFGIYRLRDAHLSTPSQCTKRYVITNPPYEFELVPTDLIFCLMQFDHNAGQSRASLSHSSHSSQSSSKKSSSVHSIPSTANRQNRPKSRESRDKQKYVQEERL
T2 sequence (Q99720 whole entry): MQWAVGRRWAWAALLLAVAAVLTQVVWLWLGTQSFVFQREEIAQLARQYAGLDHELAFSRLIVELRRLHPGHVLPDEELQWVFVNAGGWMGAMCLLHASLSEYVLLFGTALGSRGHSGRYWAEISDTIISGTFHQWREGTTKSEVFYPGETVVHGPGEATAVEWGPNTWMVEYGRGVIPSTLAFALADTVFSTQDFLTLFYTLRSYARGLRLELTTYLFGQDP
T1 sequence (P35462 whole entry): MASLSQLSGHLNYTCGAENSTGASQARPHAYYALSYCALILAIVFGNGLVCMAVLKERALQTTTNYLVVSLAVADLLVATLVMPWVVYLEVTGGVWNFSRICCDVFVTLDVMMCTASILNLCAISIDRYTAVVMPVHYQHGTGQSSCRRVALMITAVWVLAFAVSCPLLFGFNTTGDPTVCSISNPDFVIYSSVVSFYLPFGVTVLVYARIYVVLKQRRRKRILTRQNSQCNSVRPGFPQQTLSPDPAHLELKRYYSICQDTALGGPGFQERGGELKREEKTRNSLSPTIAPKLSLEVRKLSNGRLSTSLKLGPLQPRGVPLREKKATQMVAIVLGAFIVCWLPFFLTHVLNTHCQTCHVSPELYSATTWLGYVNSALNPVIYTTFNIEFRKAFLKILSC

For COc1ccc(Cl)cc1[C@]1(F)C(=O)Nc2cc(C(F)(F)F)ccc21 [BMS-204352, (3S)-(+)-(5-Chloro-2-methoxyphenyl)-1,3-dihydro-3-fluoro-6-(trifluoromethyl)-2H-indol-2-one], the genotoxicity [1] was “not genotoxic”, the inhibition at 10 µM (dopamine D3 receptor) was 74% and the teratogenicity [2] was “not teratogenic”. The “heart rate and mean arterial blood pressure” value [3] was “unaffected”, the “maximum reduction of cortical infarct volume” value (cortical infarct volume [4]) was 41% and the “typical reductions of cortical infarct volume” value (cortical infarct volume [4]) was 20-30%. For the same compound, the teratogenicity (teratogenicity in rats) was “not teratogenic”, the “effect on Cl- currents” value [5] was “no significant effect” and the Tmax ([6]; 5 mg/kg, rat brain, IV administration) was 15 min. For the same compound, the Cmax ([6]; brain, rat, 5 mg/kg IV bolus dose) was > 10000 ng/g, the brain half life ([6]; rat, IV) was 114 min and the plasma half life ([6]; rat, IV) was 96 min. For the same compound, the “ratio of brain to plasma of the total compound detected” value ([6]; rat, over an 8 hour period) was 9.6, the “heart rate and mean arterial blood pressure” value [7] was “unaffected” and the inhibition at 10 µM (σ1) was 54%. For the same compound, the “effect on Kv currents” value [8] was “no significant effect” and the “reduction of native Ca2+ current” value [9] was 15-16%.
With O=c1[nH]c2cc(C(F)(F)F)ccc2n1-c1cc(C(F)(F)F)ccc1O [NS-1619, reference compound] the “effect on hSlo-mediated current amplitudes” value ([10]; [Ca2+]i 50 nM) was “increasing the hS/omediated current amplitudes at upper voltages” and the “effect on hSlo-mediated current amplitudes” value ([10]; [Ca2+]i 2.5 μM) was “increasing the hS/omediated current amplitudes at upper voltages”.
With C[C@]12N[C@H](Cc3ccccc31)c1ccccc12 [MK-801] the neuroprotection (cortical infarct volume [11]) was “ineffective”.
For O=c1oc(-c2ccc(C(F)(F)F)cc2)nn1Cc1cc(Cl)ccc1O [BMS-A, 3-[(5-chloro-2-hydroxyphenyl)methyl]-5-[4-(trifluoromethyl)phenyl]-1,3,4-oxadiazol-2-(3H)-one], the “effect on hSlo-mediated current amplitudes” value ([10]; [Ca2+]i 50 nM) was “decreased current amplitudes over a wide range of voltages” and the “effect on hSlo-mediated current amplitudes” value ([10]; [Ca2+]i 2.5 μM) was “increased hSlo-mediated current amplitudes at the highest voltages”.
In the case of COc1ccc(Cl)cc1C1(F)C(=O)Nc2cc(C(F)(F)F)ccc21 (racemic) [Compound 1, (±)-(5-Chloro-2-methoxyphenyl)-1,3-dihydro-3-fluoro-6-(trifluoromethyl)-2H-indol-2-one], the “cortical infarct volume (MRI)” value (cortical infarct volume [12]) is reported as “significant reduction in cortical infarct volume”.
With COc1ccc(Cl)cc1C1(Cl)C(=O)Nc2cc(C(F)(F)F)ccc21 (racemic) [BMS-225113, (±)-(5-chloro-2-methoxyphenyl)1,3-dihydro-3-chloro-6-(trifluoromethyl)-2H-indol-2-one] the “effect on hSlo-mediated currents” value ([10]; compound 5 μM, [Ca2+]i 50 nM, 250 nM, 1 μM or 2.5 μM) was “significant increases only at the highest concentrations of Ca^2+ (1 μM and 2.5 μM)” and the “effect on maxi-K currents” value ([10]; compound 10 μM, [Ca2+]i 250 nM, 1.0 μM, 2.5 μM (FIG. 3A)) was “greater increases in maxi-K currents under conditions of higher [Ca^2+]i”.
For CCc1cccc(N(C)C(N)=Nc2cccc3ccccc23)c1 [CNS-1102], the neuroprotection (cortical infarct volume [11]) was “ineffective”.
